Legend:
Format in all cases: in vivo
[1] = tested on: rice (Oryza sativa); assay: Test B flooded paddy test, visual plant response rating 0-100; conditions: 250 g ai/ha, Flood, applied to paddy water, evaluated after 13 days
Procedure, shortened: (§1)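 In this flooded assay, 2-leaf seedlings received compound through the water layer, kept at 3 cm over the soil. Plants were held 13 days in a greenhouse and then visually compared with control pots.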

[2] = tested on: barnyardgrass (Echinochloa crusgalli); assay: as above; conditions: 250 g ai/ha, Flood, applied to paddy water, evaluated after 13 days
Procedure, shortened: as §1

[3] = tested on: ducksalad (Heteranthera limosa); assay: as above; conditions: 250 g ai/ha, Flood, applied to paddy water, evaluated after 13 days
Procedure, shortened: as §1

[4] = tested on: sedge, umbrella (small-flower umbrella sedge, Cyperus difformis); assay: as above; conditions: 250 g ai/ha, Flood, applied to paddy water, evaluated after 13 days
Procedure, shortened: as §1

[5] = tested on: soybean (Glycine max); assay: Test A postemergence application, visual injury rating 0-100
Procedure, shortened: (§2)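 Rating: visual, day 10, untreated plants as reference, 0 no effect to 100 full control. Plants were in loam-sand and were treated either preemergence via directed soil spray or postemergence at the one- to two-leaf stage.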

[6] = tested on: ragweed (common ragweed, Ambrosia artemisiifolia); assay: as above
Procedure, shortened: as §2

[7] = tested on: corn (Zea mays); assay: as above
Procedure, shortened: as §2

[8] = tested on: galium (catchweed bedstraw, Galium aparine); assay: as above
Procedure, shortened: as §2

[9] = tested on: barnyardgrass (Echinochloa crus-galli); assay: as above
Procedure, shortened: as §2

[10] = tested on: palmer (palmer amaranth, palmer pigweed, Amaranthus palmeri); assay: as above
Procedure, shortened: as §2

[11] = tested on: ryegrass, Italian (italian ryegrass, Lolium multiflorum); assay: as above
Procedure, shortened: as §2

[12] = tested on: horseweed (Erigeron canadensis); assay: as above
Procedure, shortened: as §2

[13] = tested on: blackgrass (Alopecurus myosuroides); assay: as above
Procedure, shortened: as §2

[14] = tested on: kochia (Bassia scoparia); assay: as above
Procedure, shortened: as §2

[15] = tested on: oat, wild (wild oat, Avena fatua); assay: as above
Procedure, shortened: as §2

[16] = tested on: green foxtail (Setaria viridis); assay: as above
Procedure, shortened: as §2

[17] = tested on: wheat (Triticum aestivum); assay: as above
Procedure, shortened: as §2

[18] = tested on: soybean (Glycine max); assay: Test A preemergence soil spray, visual injury rating 0-100; conditions: 10 days
Procedure, shortened: as §2

[19] = tested on: ragweed (common ragweed, Ambrosia artemisiifolia); assay: as above; conditions: 10 days
Procedure, shortened: as §2

[20] = tested on: corn (Zea mays); assay: as above; conditions: 10 days
Procedure, shortened: as §2

[21] = tested on: barnyardgrass (Echinochloa crus-galli); assay: as above; conditions: 10 days
Procedure, shortened: as §2

[22] = tested on: palmer (palmer amaranth, palmer pigweed, Amaranthus palmeri); assay: as above; conditions: 10 days
Procedure, shortened: as §2

[23] = tested on: ryegrass, Italian (italian ryegrass, Lolium multiflorum); assay: as above; conditions: 10 days
Procedure, shortened: as §2

[24] = tested on: blackgrass (Alopecurus myosuroides); assay: as above; conditions: 10 days
Procedure, shortened: as §2

[25] = tested on: kochia (Bassia scoparia); assay: as above; conditions: 10 days
Procedure, shortened: as §2

[26] = tested on: oat, wild (wild oat, Avena fatua); assay: as above; conditions: 10 days
Procedure, shortened: as §2

[27] = tested on: green foxtail (Setaria viridis); assay: as above; conditions: 10 days
Procedure, shortened: as §2

[28] = tested on: wheat (Triticum aestivum); assay: as above; conditions: 10 days
Procedure, shortened: as §2

[29] = 62 g ai/ha, postemergence, 10 days, 0 = no effect, 100 = complete control
[30] = Postemergence, 16 g ai/ha, greenhouse 10 days, 0 no effect, 100 complete control
[31] = 62 g ai/ha, 0 = no effect, 100 = complete control

COC(=O)C1CC(NC(=O)C2(C)CN(c3cc(F)cc(F)c3)C(=O)O2)C1 (stereo not shown) [Compound 117]
Plant response rating, Rice (0 to 100 scale, 0 is no effect and 100 is complete control) [1]: 0 | Plant response rating, Barnyardgrass (0 to 100 scale, 0 is no effect and 100 is complete control) [2]: 0 | Plant response rating, Ducksalad (0 to 100 scale, 0 is no effect and 100 is complete control) [3]: 0 | Plant response rating, Sedge, Umbrella (0 to 100 scale, 0 is no effect and 100 is complete control) [4]: 0 | Soybean plant response rating (0-100) [5, 29]: 60 | Soybean plant response rating (0 to 100 scale) [5, 30]: 40 | Ragweed plant response rating (0-100) [6, 29]: 40 | Ragweed plant response rating (0 to 100 scale) [6, 30]: 0 | Corn plant response rating (0-100) [7, 29]: 100 | Corn plant response rating (0 to 100 scale) [7, 30]: 0 | Galium plant response rating (0-100) [8, 29]: 60 | Galium plant response rating (0 to 100 scale) [8, 30]: 50 | Barnyardgrass plant response rating (0-100) [9, 29]: 70 | Barnyardgrass plant response rating (0 to 100 scale) [9, 30]: 0 | Pigweed, Palmer plant response rating (0-100) [10, 29]: 10 | Pigweed, Palmer plant response rating (0 to 100 scale) [10, 30]: 0 | Ryegrass, Italian plant response rating (0-100) [11, 29]: 80 | Ryegrass, Italian plant response rating (0 to 100 scale) [11, 30]: 60 | Horseweed plant response rating (0-100) [12, 29]: 0 | Horseweed plant response rating (0 to 100 scale) [12, 30]: 0 | Blackgrass plant response rating (0-100) [13, 29]: 90 | Blackgrass plant response rating (0 to 100 scale) [13, 30]: 70 | Kochia plant response rating (0-100) [14, 29]: 0 | Kochia plant response rating (0 to 100 scale) [14, 30]: 0 | Oat, Wild plant response rating (0-100) [15, 29]: 80 | Oat, Wild plant response rating (0 to 100 scale) [15, 30]: 10 | Foxtail, Green plant response rating (0-100) [16, 29]: 90 | Foxtail, Green plant response rating (0 to 100 scale) [16, 30]: 30 | Wheat plant response rating (0-100) [17, 29]: 90 | Wheat plant response rating (0 to 100 scale) [17, 30]: 50 | Soybean plant response rating ([18]; 16 g ai/ha, 0 to 100 scale): 0 | Soybean plant response rating (0-100) [18, 31]: 0 | Ragweed plant response rating ([19]; 16 g ai/ha, 0 to 100 scale): 0 | Ragweed plant response rating (0-100) [19, 31]: 0 | Corn plant response rating ([20]; 16 g ai/ha, 0 to 100 scale): 0 | Corn plant response rating (0-100) [20, 31]: 0 | Barnyardgrass plant response rating ([21]; 16 g ai/ha, 0 to 100 scale): 0 | Barnyardgrass plant response rating (0-100) [21, 31]: 10 | Pigweed, Palmer plant response rating ([22]; 16 g ai/ha, 0 to 100 scale): 0 | Pigweed, Palmer plant response rating (0-100) [22, 31]: 10 | Ryegrass, Italian plant response rating ([23]; 16 g ai/ha, 0 to 100 scale): 0 | Ryegrass, Italian plant response rating (0-100) [23, 31]: 70 | Blackgrass plant response rating ([24]; 16 g ai/ha, 0 to 100 scale): 30 | Blackgrass plant response rating (0-100) [24, 31]: 60 | Kochia plant response rating ([25]; 16 g ai/ha, 0 to 100 scale): 0 | Kochia plant response rating (0-100) [25, 31]: 0 | Oat, Wild plant response rating ([26]; 16 g ai/ha, 0 to 100 scale): 40 | Oat, Wild plant response rating (0-100) [26, 31]: 90 | Foxtail, Green plant response rating ([27]; 16 g ai/ha, 0 to 100 scale): 0 | Foxtail, Green plant response rating (0-100) [27, 31]: 80 | Wheat plant response rating ([28]; 16 g ai/ha, 0 to 100 scale): 0 | Wheat plant response rating (0-100) [28, 31]: 20

From US20260285850A1, “SUBSTITUTED OXAZOLIDINONES AND IMIDAZOLINONES AS HERBICIDES” (FMC CORPORATION, priority 2023, published 2026)
